In series [1] the test system is Primary bronchial epithelial cells. Description: MTT cytotoxicity, normal primary epithelial cells. Type of series: cell-based, human. Particulars: Normal primary epithel, three days, read-out: EC50 (50% reduction in cell viability). The procedure:
(§1) The cytotoxic activity of various phospho-derivatives of branched-chain fatty acids (DP-BFAs) was assayed in vitro in cell cultures that include normal and malignant cell types. The following cell systems were used: • Primary fibroblasts (human) • Normal bone marrow (BM) cells (mouse) • Primary bronchial epithelial cells (human, from Clonetics, cat. no. CC-2541) • Caco-2—colon cancer cell line (human, ATTC, HTB-37) • C6 glioma cell line (rat, ATCC, CRL-2199) • Neuro2a—neuroblastoma cell line (mouse, ATCC, CCL-131) • SKBR-3—breast cancer cell line (human, ATTC, HTB-30) • HL60—myeloid leukemia cell line (human, ATCC, CCL-240) • U937—myeloid leukemia cell line (human)
(§2) Cells were seeded in a microtiter plate in MEM containing 2 mM L-glutamine, 100 units/ml penicillin, 100 ug/ml streptomycin and 10% FCS at 37° C. The cultured cells were incubated, during their linear growth phase in the absence (control group) or presence of various DP-BFAs as indicated. The final concentrations of the tested DP-BFAs ranged from 1.5 to 200 microMolars. At the end of the incubation period, which was five days for the bone marrow cells and three days for all the other cell lines, the cytotoxic effect of the added P-BFA on the cells was estimated by using the colorimetric MTT assay. The MTT assay (Mosmann (1983) J. Immunol Methods 65: 55–63) measures mitochondrial reductase activity and serves for quantitative assessment of cellular viability. Drug concentration that causes 50% reduction in cell viability in comparison to the control group, is defined as EC50. The EC50 values of the tested DP-BFA compounds were calculated from dose response curves established for each of the different assayed cell lines.
(§3) Each EC50 value is an average of EC50 values derived from 1–5 independent experiments.

Series [2] deals with HL60 myeloid leukemia cell line. Description: MTT cytotoxicity, HL60. Particulars: HL60, three days, read-out: EC50 (50% reduction in cell viability). Type of series: cell-based, human. The procedure:
as §1, §2, §3

Series [3] concerns Normal bone marrow (BM) cells. Description: MTT cytotoxicity, normal bone marrow cells. Type of series: cell-based, mouse. The following applies: five days, read-out: EC50 (50% reduction in cell viability). The procedure: as §1, §2, §3
Series [4] deals with U937 myeloid leukemia cell line. Description: MTT cytotoxicity, U937. In kind it is cell-based, human. The following applies: U937, three days, read-out: EC50 (50% reduction in cell viability). The procedure: as §1, §2, §3
Series [5] concerns blood brain barrier (BBB). Description: BBB permeabilization in rats, Evans blue extravasation into brain. In kind it is in vivo, Sprague-Dawley rats. The following applies: for MEC (minimal effective concentration): concentration giving 3 μg EB/g brain. The text has this:
Permeabilization of the BBB by DP-BFA was investigated in rat model system by monitoring accumulation in the brain of two markers: a) Evans blue dye (EB), which rapidly binds in vivo with albumin (NW 70 kD) and is an indicator for paracellular transport; and b) Fluorescein sodium salt (F—Na), MW 376 D, which is transported via the cellular space, and enables monitoring transcellular transport. Upon BBB disruption the Evans blue-albumin complex irreversibly accumulates in the intercellular space of the brain. The much smaller tracer fluorescein may be transported intracellularly to occupy both inter and intracellular space in the brain.
Blood brain barrier permeabilization in Sprague-Dawley rats was induced by brief exposure to DP-BFA. The animals were anesthetized with Rampun-Imalgen and DP-BFA test compounds were administered via the external carotid artery retrograde to the brain (Smith, Q. R. Methods of study. In: Physiology and Pharmacology of the Blood-Brain Barrier. Ed. Bradbury M. W. B. Spinger-Verlag. Berlin-Heidelberg-NY; 1992: 24–52). The pterygo-palathina artery was ligated to avoid escape of infused solutions towards the external head vasculature. DP-BFA solutions were infused over a period of 30 seconds or half an hour, using a Harvard Apparatus Syringe Pump. Blood flow through carotid communis artery was interrupted only at the time of infusion.
All tested DP-BFA molecules were prepared from stock solutions in either water or ethanol by diluting 200–1000 fold into solution of isosmotic mannitol (5%) in Tromethamine buffer (Sigma) or PBS (pH 7.4)
The markers, Evans blue (EB, 25 mg/ml) and fluorescein (F—Na, 12.5 mg/ml), in 1 ml solution, were injected intravenously immediately following administration of the tested DP-BFA, or after a specific time interval if reversibility of action was investigated. Supportive i.v. infusion of F—Na (12.5 mg/ml–100 μl/min) was performed for 8 minutes. Brains were washed with saline solution (60 ml) 10 min after the intracarotid “flash”. Brain ipsilateral and contralateral hemispheres and tumors, where applicable, were homogenized separately with 50% trichloroacetic acid (TCA). The markers concentrations in the cortex and in tumors, where, applicable, were determined spectrofluorometrically (Uyama, O. et al., (1988) J. Cereb. Blood Flow Metab. 8, 282–284: Abraham et al., (1996) Neurosci. Lett. 208, 85–88). The markers content was calculated as μg marker per one-gram brain tissue. Standard error and Student's test for statistical significance were used.
The experiment was carried out on male Sprague-Dawley rats weighing 250–320 g. The procedure described above in Example 17 was followed.
The effect of the tested compounds on the BBB opening was evaluated by two parameters:
a) efficacy—The degree of BBB opening estimated in terms of accumulation of Evans Blue albumin (μg EB/g brain tissue); and
b) potency—measured in terms of EC50 and minimal effective concentration (MEC) values. EC50 is the concentration of a tested compound producing 50% of the maximal effect of Evans Blue extravasation.
The effect of various DP-BFAs on BBB permeability was tested in the model system of rat brains, as described above in Example 17. Efficacy, namely the level of the BBB opening was expressed as the amount of Evans blue accumulated in the brain (μg EB/g brain). Potency of the tested molecules was estimated by their calculated EC50 and minimal effective concentration (MEC) values.

Series [6] concerns Chinese hamster ovary (CHO) AA8 cell line. Description: LDH release toxicity assay in cultured CHO AA8 cells. Type of series: cell-based. The following applies: 1 hour incubation, read-out: LC50 (the source's name). The method, then:
Various DP-BFA molecules were screened in cultured Chinese hamster ovary (CHO) AA8 cell line in order to establish their toxicity. LC50 values, i.e. the concentrations causing death in 50% of cell population, were calculated from dose response curves. LC50 values of phospho-BFAs were compared to those of the corresponding branched fatty acids (=carbo-BFAs).
Lactate dehydrogenase (LDH) release was used as an assay for the integrity of the cells membrane and, thus, for estimation of toxicity. Cells (2×10^5/ml) were seeded (150 μl/well) in 96 well plates, in RPMI-1640 medium containing 10% FCS. After two days, tested DP-BFA compounds or the control compound myristic acid were added to the plates in declining concentrations ranging from 500 to 1 μg/ml. Cells were harvested after one hour. […] Other controls included, two blank wells and five wells containing cells with no additional drugs. Following centrifugation (1500 rpm, 5 min), 75 μl of the supernatant was transferred to a new plate with 45 μl of an LDH assay mix (Tox-7 kit, Sigma). After 10–20 minutes at room temperature, absorbance was measured using an Elisa Reader 490 nm.
Each experiment was performed in triplicate.

The format of series [7] is in vivo. The following applies: rats, sodium salt. The method, then: DP-BFA molecules were evaluated for safety and toxicity. Increasing doses of the tested compounds were administered intra-arterially (i.a.) into rats following the protocol described above in Example 17. Animal viability was monitored for 24 hours to evaluate lethal concentrations (LC). LC is defined as the minimal concentration that caused death.
Safety index is defined as the ratio between the lethal dose (LC) and the minimal effective concentration (MEC), wherein MEC corresponds to a calculated concentration of the tested compound that elicits accumulation of three times the amount of Evans blue accumulated in control animals treated with vehicle only, i.e. total accumulation of 3 μg EB. The higher the LC/MEC ratio is, the higher the safety index.

Series [8] is described as follows: Octanol/saline solubility and partition coefficient, shake-flask technique.
Protocol: The lipophilicity values of various derivatives of branched fatty acids were estimated by comparing the solubility of these compounds in organic versus aqueous solutions. Octanol and physiological saline were used, respectively, as the organic and aqueous solutions. The partition coefficient (Pc) value, i.e. the octanol/saline distribution was measured by the shake-flask technique.
In series [9] the test system is Neuro2a neuroblastoma cell line. Description: MTT cytotoxicity, Neuro2a. Particulars: three days, read-out: EC50 (50% reduction in cell viability). Type of series: cell-based, mouse. The method, then:
as §1, §2, §3

Series [10] has as its system Caco-2 colon cancer cell line. Description: MTT cytotoxicity, Caco-2. The following applies: Caco-2, three days, read-out: EC50 (50% reduction in cell viability). In kind it is cell-based, human. The procedure: as §1, §2, §3
The test system of series [11] is SKBR-3 breast cancer cell line. Description: MTT cytotoxicity, SKBR-3. In kind it is cell-based, human. Particulars: three days, read-out: EC50 (50% reduction in cell viability). The method, then:
as §1, §2, §3

The subject of series [12] is blood brain barrier (BBB). Description: BBB permeability to EB-albumin and Fluorescein in normal rat brains. In kind it is in vivo. Particulars: compounds at EC50 (Mannitol 25%); for % EB/g brain: control 0.04 ± 0.01; for Brain fluorescein uptake (% of serum F-Na level): control 0.3 ± 0.08; for Ratio F-Na/EB (mean of individual ratios): control 9.5 ± 1.6. The source says: The effect of various DP-BFAs on BBB permeabilization to molecules of different sizes was examined in vivo in the model system of normal rat brains.
The transport of two markers was followed: a) Evans blue bound to albumin (MW 70 kD) as an indicator for paracellular transport; and b) Fluorescein sodium salt (MW 376 D) that represents small size molecules.
The Evans blue dye (EB) and Fluorescein sodium salt (F—Na) were infused into the artery carotis externa over 30 seconds according to the protocol described above in Example 17. The test compounds were used at their EC50 concentrations. Control animals were treated with vehicle solution.
Evans blue extravasation is expressed as the percentage of the total amount of EB accumulated per one gram of brain tissue. The transport of fluorescein into the brain, which is dependent on the serum concentration of this molecule, is presented as percentage of the F—Na level in the serum.

[13] abbreviates: Table 6, rat brains, Evans blue extravasation, read-out: EQ50 (the source's name).

Where two headings read alike, the source gives them in different places.

On to `CCCCCCCCCCCCCCCCCCC(CCC)C(=O)OCCOCCOP(=O)([O-])OCC[N+](C)(C)C` (centres unmarked) [3,18-DEG-PC, 2-(2′-Propyleicosanoyloxy)ethoxyethylphosphocholine], for which the EC50 in series [1] (Homo sapiens, Primary bronchial epithelial cell, 72 h) was 60 µM; in series [2] (Homo sapiens, HL-60, 72 h) it was 13 µM; in [3] (Mus musculus, Bone marrow cell, 120 h), 80 µM; in series [4] (Homo sapiens, U-937, 72 h), 6 µM.
For `CCCCCCCC(CCCCCCC)C(=O)[O-].[Na+]` [7,7-Na, reference compound], the “μg EB/g brain (at EC50)” value in series [5] (Table 5, at EC50) turned out to be 4.2 ± 0.6 μg EB/g brain. For the same compound, the “MEC (minimal effective concentration)” value in series [5] (Table 5) amounted to 132 ± 19. For the same compound, the EC50 in series [5] (Table 5, rat brain, intracarotid infusion, read-out: EC50 (Evans Blue extravasation)) worked out at 184 ± 21 µM. Further, in [5] (Table 8, sodium salt, in µM), the MEC came out at 132 ± 19. Besides, the CC50 in [6] was determined as 65 µM. The “LC (minimal concentration that caused death)” value in series [7] (i.a., viability monitored 24 hours) was 360 ± 67 µM. The “Safety LC/MEC” value in series [7] is recorded as 2.7. Moreover, in series [8] (octanol/physiological saline, sodium salts), the “LogPc (octanol-saline partition coefficient)” value is 1.33. Also, the “Water mg/ml (solubility in aqueous solution)” value in [8] (physiological saline as aqueous solution, sodium salts) is above 25 mg/mL. Also, the “Octanol mg/ml (solubility in octanol)” value in [8] (sodium salts of the branched fatty acids and their PO4 derivatives) is above 50 mg/mL.
4-Octadecanyl phosphocholine [3,14-PC]: the EC50 was found to be 72 µM in series [1], 7 µM in [2], 160 µM in series [3] and 4 µM in [4].
As for `CCCCCCCC(CCCCCCC)OP(=O)(O)O` [7,7-PO4Na2, 8-Pentadecanyl Disodium Phosphate], the CC50 in series [6] was determined as 320 µM.
Regarding `CCCCCCCCCCCCC(CCC)C(=O)OCCOP(=O)([O-])[O-].[Na+].[Na+]` (centres unmarked) [3,12-MEG-PO4Na2, 2-(2′-Propyltetradecanoyloxy)ethyl Disodium Phosphate], in [5] (Table 6, at EC50 (Mannitol at 25%)), the “μg EB/g brain (at EC50)” value was determined as 5 ± 1 μg EB/g brain. Further, in series [5] (Table 6), the “MEC (minimal effective concentration)” value stood at 11 ± 2 µM. Also, the EC50 in [5] (setting [13]) was 18 ± 3 µM; in series [9], 60 µM; in series [4], 75 µM; in series [10] it was above 200 µM; in [11], above 200 µM. Also, in [12], the “% EB/g brain” value is 0.8 ± 0.1%. Moreover, in series [12], the “Brain fluorescein uptake (% of serum F-Na level)” value is 5.0 ± 0.8 % of the F—Na level in the ser. Also, the “Ratio F-Na/EB (mean of individual ratios)” value in [12] worked out at 8.4 ± 0.9.
Consider `CCCCCCCCCCCCC(CCC)OP(=O)([O-])[O-].[Na+].[Na+]` (centres unmarked) [3,12-PO4Na2, 4-Hexadecanyl Disodium Phosphate], for which the “μg EB/g brain (at EC50)” value is listed as 20 ± 3 μg EB/g brain in series [5] (Table 6, at EC50 (Mannitol at 25%), listed as 3,12-PO4-Na2) and 20 μg EB/g brain in [5] (Table 6, at EC50 (Mannitol at 25%), listed as 3,12-PO4—Na2). Also, the “MEC (minimal effective concentration)” value in series [5] (Table 6) is 3.3 ± 0.5 µM. The EC50 in [5] (setting [13]) was 55 ± 1 µM; in [9] it was 105 µM; in series [4] it was 90 µM; in series [10] it was above 200 µM; in series [11] it was above 200 µM. In series [6], the CC50 was 320 µM. Moreover, the “% EB/g brain” value in series [12] stood at 2.9 ± 0.6%. Moreover, the “Brain fluorescein uptake (% of serum F-Na level)” value in series [12] is on record as 8.2 ± 0.9 % of the F—Na level in the ser. Moreover, the “Ratio F-Na/EB (mean of individual ratios)” value in [12] turned out to be 5.9 ± 1.0.

The values are drawn from patent publication US7186703B2, “Derivatives of branched-chain lipophilic molecules and uses thereof” (D-Pharm Ltd., priority 2000, dated 2007).
